Test results reported in ChEMBL document CHEMBL2413076, “Synthesis and biological evaluation of ursolic acid-triazolyl derivatives as potential anti-cancer agents” (Eur J Med Chem, 2013).

Tests used:
MCF7 [1] = test: Growth inhibition of human MCF7 cells assessed as dead cells at 1 uM after 48 hrs by sulforhodamine-B assay relative to control; assay type: functional; conditions: MCF7, 48 h, read-out: GI
A549 [2] = test: Growth inhibition of human A549 cells assessed as dead cells at 1 uM after 48 hrs by sulforhodamine-B assay relative to control; assay type: functional; conditions: A549, 48 h, read-out: GI
[3] = Growth inhibition of human FR2 cells after 48 hrs by sulforhodamine-B assay; assay type: cell-based; conditions: FR2, 48 h
THP-1 [4] = test: Growth inhibition of human THP1 cells after 48 hrs by sulforhodamine-B assay; assay type: functional, cell-based; conditions: THP-1, 48 h
MCF7 [5] = test: Growth inhibition of human MCF7 cells after 48 hrs by sulforhodamine-B assay; assay type: functional, cell-based; conditions: MCF7, 48 h
HCT-116 [6] = test: Growth inhibition of human HCT116 cells after 48 hrs by sulforhodamine-B assay; assay type: functional, cell-based; conditions: HCT-116, 48 h
A549 [7] = test: Growth inhibition of human A549 cells after 48 hrs by sulforhodamine-B assay; assay type: functional, cell-based; conditions: A549, 48 h
[8] = Growth inhibition of human FR2 cells assessed as dead cells at 10 uM after 48 hrs by sulforhodamine-B assay relative to control; assay type: cell-based; conditions: read-out: GI
THP-1 [9] = test: Growth inhibition of human THP1 cells assessed as dead cells at 10 uM after 48 hrs by sulforhodamine-B assay relative to control; assay type: functional; conditions: THP-1, 48 h, read-out: GI
HCT-116 [10] = test: Growth inhibition of human HCT116 cells assessed as dead cells at 10 uM after 48 hrs by sulforhodamine-B assay relative to control; assay type: functional; conditions: HCT-116, 48 h, read-out: GI
MCF7 [11] = test: Growth inhibition of human MCF7 cells assessed as dead cells at 10 uM after 48 hrs by sulforhodamine-B assay relative to control; assay type: functional; conditions: MCF7, 48 h, read-out: GI
A549 [12] = test: Growth inhibition of human A549 cells assessed as dead cells at 10 uM after 48 hrs by sulforhodamine-B assay relative to control; assay type: functional; conditions: A549, 48 h, read-out: GI
[13] = Growth inhibition of human FR2 cells assessed as dead cells at 50 uM after 48 hrs by sulforhodamine-B assay relative to control; assay type: cell-based; conditions: read-out: GI
A549 [14] = test: Growth inhibition of human A549 cells assessed as dead cells at 50 uM after 48 hrs by sulforhodamine-B assay relative to control; assay type: functional; conditions: A549, 48 h, read-out: GI
MCF7 [15] = test: Growth inhibition of human MCF7 cells assessed as dead cells at 50 uM after 48 hrs by sulforhodamine-B assay relative to control; assay type: functional; conditions: MCF7, 48 h, read-out: GI
HCT-116 [16] = test: Growth inhibition of human HCT116 cells assessed as dead cells at 50 uM after 48 hrs by sulforhodamine-B assay relative to control; assay type: functional; conditions: HCT-116, 48 h, read-out: GI
THP-1 [17] = test: Growth inhibition of human THP1 cells assessed as dead cells at 50 uM after 48 hrs by sulforhodamine-B assay relative to control; assay type: functional; conditions: THP-1, 48 h, read-out: GI
HCT-116 [18] = test: Growth inhibition of human HCT116 cells assessed as dead cells at 20 uM after 48 hrs by sulforhodamine-B assay relative to control; assay type: functional; conditions: HCT-116, 48 h, read-out: GI
THP-1 [19] = test: Growth inhibition of human THP1 cells assessed as dead cells at 20 uM after 48 hrs by sulforhodamine-B assay relative to control; assay type: functional; conditions: THP-1, 48 h, read-out: GI
A549 [20] = test: Growth inhibition of human A549 cells assessed as dead cells at 20 uM after 48 hrs by sulforhodamine-B assay relative to control; assay type: functional; conditions: A549, 48 h, read-out: GI

| Compound | inhibition of growth at 1 µM (MCF7 [1]) [%] | inhibition of growth at 1 µM (A549 [2]) [%] | IC50 [3] [µM] | IC50 (THP-1 [4]) [µM] | IC50 (MCF7 [5]) [µM] | IC50 (HCT-116 [6]) [µM] | IC50 (A549 [7]) [µM] | inhibition at 48 h, 10 µM [8] [%] | inhibition of growth at 10 µM (THP-1 [9]) [%] | inhibition of growth at 10 µM (HCT-116 [10]) [%] | inhibition of growth at 10 µM (MCF7 [11]) [%] | inhibition of growth at 10 µM (A549 [12]) [%] | inhibition at 48 h, 50 µM [13] [%] | inhibition of growth at 50 µM (A549 [14]) [%] | inhibition of growth at 50 µM (MCF7 [15]) [%] | inhibition of growth at 50 µM (HCT-116 [16]) [%] | inhibition of growth at 50 µM (THP-1 [17]) [%] | inhibition of growth at 20 µM (HCT-116 [18]) [%] | inhibition of growth at 20 µM (THP-1 [19]) [%] | inhibition of growth at 20 µM (A549 [20]) [%] |
| --- | --- | --- | --- | --- | --- | --- | --- | --- | --- | --- | --- | --- | --- | --- | --- | --- | --- | --- | --- | --- |
| CO[C@@]12[C@H](COC(N)=O)C3=C(C(=O)C(C)=C(N)C3=O)N1C[C@@H]1N[C@@H]12 [MITOMYCIN] | 82 | 70 | – | – | – | – | – | – | – | – | – | – | – | – | – | – | – | – | – | – |
| COc1ccccc1-n1cc(COC(=O)[C@]23CC[C@@H](C)[C@H](C)[C@H]2C2=CC[C@@H]4[C@@]5(C)CCC(=O)C(C)(C)[C@@H]5CC[C@@]4(C)[C@]2(C)CC3)nn1 | – | – | > 50 | < 0.1 | < 0.1 | 0.3 | < 0.1 | 5 | 82 | 77 | 87 | 79 | 28 | 94 | 91 | 94 | 93 | – | – | – |
| C[C@H]1[C@H](C)CC[C@]2(C(=O)OCc3cn(-c4ccc(F)cc4F)nn3)CC[C@]3(C)C(=CC[C@@H]4[C@@]5(C)CCC(=O)C(C)(C)[C@@H]5CC[C@]43C)[C@H]12 | – | – | 44 | 1.1 | 30 | 0.47 | 6.4 | 2 | 82 | 69 | 17 | 57 | 78 | 64 | 73 | 91 | 86 | – | – | – |
| C[C@H]1[C@H](C)CC[C@]2(C(=O)O)CC[C@]3(C)C(=CC[C@@H]4[C@@]5(C)CC[C@H](O)C(C)(C)[C@@H]5CC[C@]43C)[C@H]12 [URSOLIC ACID] | – | – | 31 | 9.1 | 37 | 42 | 33 | 31 | 31 | 55 | 36 | 28 | 66 | 61 | 57 | 53 | 84 | – | – | – |
| O=c1[nH]cc(F)c(=O)[nH]1 [FLUOROURACIL] | – | – | – | – | – | – | – | – | – | – | – | – | – | – | – | – | – | 76 | 96 | 86 |
